How the values were obtained:
Assay type in all cases: in vivo
[1] = tested on: barnyardgrass (Echinochloa crus-galli); assay: Test G Pre-Emergence Protocol; settings: Echinochloa crus-galli, pre-emergence, 312 h, evaluated after 13 days; for pest or weed control at 15.625 g/ha: 15.625 g ai/ha; for pest or weed control at 15.625 g/ha / pest or weed control at 250 g/ha: read-out: Barnyardgrass damage rating (100=total damage to plant; 0=no damage to plant); for pest or weed control at 62.5 g/ha: 62.5 g ai/ha, 100=total damage to plant, 0=no damage to plant, read-out: Barnyardgrass damage rating; for pest or weed control at 250 g/ha: 250 g ai/ha
In short: (§1)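 Under a 24/16° C day/night regime with 14 h light and 65% humidity, sown pots were sprayed after one day with compound (15.625, 62.5 or 250 g/ha; 50:50 acetone/water, 0.5% Tween 20). Damage was assessed visually 13 days later, 0 to 100.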

[2] = tested on: corn (Zea mays); assay: Test G Pre-Emergence Protocol; settings: Zea mays, pre-emergence, 312 h, evaluated after 13 days; for plant injury at 15.625 g/ha: 15.625 g ai/ha; for plant injury at 15.625 g/ha / plant injury at 250 g/ha: read-out: Corn damage rating (100=total damage to plant; 0=no damage to plant); for plant injury at 62.5 g/ha: 62.5 g ai/ha, 100=total damage to plant, 0=no damage to plant, read-out: Corn damage rating; for plant injury at 250 g/ha: 250 g ai/ha
In short: as §1

[3] = tested on: giant foxtail (Setaria faberi); assay: Test G Pre-Emergence Protocol; settings: Setaria faberi, pre-emergence, 312 h, evaluated after 13 days; for pest or weed control at 15.625 g/ha: 15.625 g ai/ha; for pest or weed control at 15.625 g/ha / pest or weed control at 250 g/ha: read-out: Foxtail, Giant damage rating (100=total damage to plant; 0=no damage to plant); for pest or weed control at 62.5 g/ha: 62.5 g ai/ha, 100=total damage to plant, 0=no damage to plant, read-out: Foxtail, Giant damage rating; for pest or weed control at 250 g/ha: 250 g ai/ha
In short: as §1

[4] = tested on: ivy-leaved morning glory (Ipomoea hederacea); assay: Test G Pre-Emergence Protocol; settings: Ipomoea, pre-emergence, 312 h, evaluated after 13 days; for pest or weed control at 15.625 g/ha: 15.625 g ai/ha; for pest or weed control at 15.625 g/ha / pest or weed control at 250 g/ha: read-out: Morningglory, Ivy-leaved damage rating (100=total damage to plant; 0=no damage to plant); for pest or weed control at 62.5 g/ha: 62.5 g ai/ha, 100=total damage to plant, 0=no damage to plant, read-out: Morningglory, Ivy-leaved damage rating; for pest or weed control at 250 g/ha: 250 g ai/ha
In short: as §1

[5] = tested on: redroot pigweed (Amaranthus retroflexus); assay: Test G Pre-Emergence Protocol; settings: Amaranthus retroflexus, pre-emergence, 312 h, evaluated after 13 days; for pest or weed control at 15.625 g/ha: 15.625 g ai/ha; for pest or weed control at 15.625 g/ha / pest or weed control at 250 g/ha: read-out: Pigweed, Redroot damage rating (100=total damage to plant; 0=no damage to plant); for pest or weed control at 62.5 g/ha: 62.5 g ai/ha, 100=total damage to plant, 0=no damage to plant, read-out: Pigweed, Redroot damage rating; for pest or weed control at 250 g/ha: 250 g ai/ha
In short: as §1

[6] = tested on: velvetleaf (Abutilon theophrasti); assay: Test G Pre-Emergence Protocol; settings: Abutilon theophrasti, pre-emergence, 312 h, evaluated after 13 days; for pest or weed control at 15.625 g/ha: 15.625 g ai/ha; for pest or weed control at 15.625 g/ha / pest or weed control at 250 g/ha: read-out: Velvetleaf damage rating (100=total damage to plant; 0=no damage to plant); for pest or weed control at 62.5 g/ha: 62.5 g ai/ha, 100=total damage to plant, 0=no damage to plant, read-out: Velvetleaf damage rating; for pest or weed control at 250 g/ha: 250 g ai/ha
In short: as §1

[7] = tested on: barnyardgrass (Echinochloa crus-galli); assay: Test G Post-Emergence Protocol; settings: Echinochloa crus-galli, post-emergence, 312 h, read-out: Barnyardgrass damage rating; for pest or weed control at 15.625 g/ha: 15.625 g ai/ha, evaluated after 13 days (100=total damage to plant; 0=no damage to plant); for pest or weed control at 62.5 g/ha: 62.5 g ai/ha; for pest or weed control at 62.5 g/ha / pest or weed control at 250 g/ha: evaluated after 13 days, 100=total damage to plant, 0=no damage to plant; for pest or weed control at 250 g/ha: 250 g ai/ha
In short: (§2)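 Values are percent visual injury at 13 days after treatment (0 none, 100 total). Treatment was a post-emergence spray at 15.625, 62.5 or 250 g/ha on 8-day-old pot plants kept at 24/16 °C.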

[8] = tested on: corn (Zea mays); assay: Test G Post-Emergence Protocol; settings: Zea mays, post-emergence, 312 h, read-out: Corn damage rating; for plant injury at 15.625 g/ha: 15.625 g ai/ha, evaluated after 13 days (100=total damage to plant; 0=no damage to plant); for plant injury at 62.5 g/ha: 62.5 g ai/ha; for plant injury at 62.5 g/ha / plant injury at 250 g/ha: evaluated after 13 days, 100=total damage to plant, 0=no damage to plant; for plant injury at 250 g/ha: 250 g ai/ha
In short: as §2

[9] = tested on: giant foxtail (Setaria faberi); assay: Test G Post-Emergence Protocol; settings: Setaria faberi, post-emergence, 312 h, read-out: Foxtail, Giant damage rating; for pest or weed control at 15.625 g/ha: 15.625 g ai/ha, evaluated after 13 days (100=total damage to plant; 0=no damage to plant); for pest or weed control at 62.5 g/ha: 62.5 g ai/ha; for pest or weed control at 62.5 g/ha / pest or weed control at 250 g/ha: evaluated after 13 days, 100=total damage to plant, 0=no damage to plant; for pest or weed control at 250 g/ha: 250 g ai/ha
In short: as §2

[10] = tested on: ivy-leaved morning glory (Ipomoea hederacea); assay: Test G Post-Emergence Protocol; settings: Ipomoea, post-emergence, 312 h, read-out: Morningglory, Ivy-leaved damage rating; for pest or weed control at 15.625 g/ha: 15.625 g ai/ha, evaluated after 13 days (100=total damage to plant; 0=no damage to plant); for pest or weed control at 62.5 g/ha: 62.5 g ai/ha; for pest or weed control at 62.5 g/ha / pest or weed control at 250 g/ha: evaluated after 13 days, 100=total damage to plant, 0=no damage to plant; for pest or weed control at 250 g/ha: 250 g ai/ha
In short: as §2

[11] = tested on: redroot pigweed (Amaranthus retroflexus); assay: Test G Post-Emergence Protocol; settings: Amaranthus retroflexus, post-emergence, 312 h, read-out: Pigweed, Redroot damage rating; for pest or weed control at 15.625 g/ha: 15.625 g ai/ha, evaluated after 13 days (100=total damage to plant; 0=no damage to plant); for pest or weed control at 62.5 g/ha: 62.5 g ai/ha; for pest or weed control at 62.5 g/ha / pest or weed control at 250 g/ha: evaluated after 13 days, 100=total damage to plant, 0=no damage to plant; for pest or weed control at 250 g/ha: 250 g ai/ha
In short: as §2

[12] = tested on: velvetleaf (Abutilon theophrasti); assay: Test G Post-Emergence Protocol; settings: Abutilon theophrasti, post-emergence, 312 h, read-out: Velvetleaf damage rating; for pest or weed control at 15.625 g/ha: 15.625 g ai/ha, evaluated after 13 days (100=total damage to plant; 0=no damage to plant); for pest or weed control at 62.5 g/ha: 62.5 g ai/ha; for pest or weed control at 62.5 g/ha / pest or weed control at 250 g/ha: evaluated after 13 days, 100=total damage to plant, 0=no damage to plant; for pest or weed control at 250 g/ha: 250 g ai/ha
In short: as §2

| Structure (SMILES) | pest or weed control at 15.625 g/ha [1] | pest or weed control at 62.5 g/ha [1] | pest or weed control at 250 g/ha [1] | plant injury at 15.625 g/ha [2] | plant injury at 62.5 g/ha [2] | plant injury at 250 g/ha [2] | pest or weed control at 15.625 g/ha [3] | pest or weed control at 62.5 g/ha [3] | pest or weed control at 250 g/ha [3] | pest or weed control at 15.625 g/ha [4] | pest or weed control at 62.5 g/ha [4] | pest or weed control at 250 g/ha [4] | pest or weed control at 15.625 g/ha [5] | pest or weed control at 62.5 g/ha [5] | pest or weed control at 250 g/ha [5] | pest or weed control at 15.625 g/ha [6] | pest or weed control at 62.5 g/ha [6] | pest or weed control at 250 g/ha [6] | pest or weed control at 15.625 g/ha [7] | pest or weed control at 62.5 g/ha [7] | further results |
| --- | --- | --- | --- | --- | --- | --- | --- | --- | --- | --- | --- | --- | --- | --- | --- | --- | --- | --- | --- | --- | --- |
| COC(=O)c1cc([C@H]2CN(C)C(=O)[C@@H]2C(=O)Nc2cccc(F)c2F)ccc1C (racemic) [Compound 1683] | 60% | 70% | 80% | 30% | 50% | 80% | 70% | 80% | 90% | 0% | 10% | 60% | 20% | 20% | 20% | 0% | 10% | 30% | 70% | 70% | pest or weed control at 250 g/ha [7]: 80%; plant injury at 15.625 g/ha [8]: 20%; plant injury at 62.5 g/ha [8]: 40%; plant injury at 250 g/ha [8]: 80%; pest or weed control at 15.625 g/ha [9]: 70%; pest or weed control at 62.5 g/ha [9]: 80%; pest or weed control at 250 g/ha [9]: 80%; pest or weed control at 15.625 g/ha [10]: 30%; pest or weed control at 62.5 g/ha [10]: 30%; pest or weed control at 250 g/ha [10]: 50%; pest or weed control at 15.625 g/ha [11]: 30%; pest or weed control at 62.5 g/ha [11]: 10%; pest or weed control at 250 g/ha [11]: 40%; pest or weed control at 15.625 g/ha [12]: 0%; pest or weed control at 62.5 g/ha [12]: 20%; pest or weed control at 250 g/ha [12]: 50% |
| CN1C[C@H](c2ccc(C(F)F)cc2)[C@@H](C(=O)Nc2cccc(F)c2F)C1=O (racemic) [Compound 1728] | 70% | 90% | 90% | 30% | 80% | 80% | 80% | 90% | 90% | 0% | 30% | 80% | 30% | 80% | 80% | 40% | 60% | 80% | 70% | 80% | pest or weed control at 250 g/ha [7]: 80%; plant injury at 15.625 g/ha [8]: 60%; plant injury at 62.5 g/ha [8]: 60%; plant injury at 250 g/ha [8]: 80%; pest or weed control at 15.625 g/ha [9]: 80%; pest or weed control at 62.5 g/ha [9]: 80%; pest or weed control at 250 g/ha [9]: 80%; pest or weed control at 15.625 g/ha [10]: 0%; pest or weed control at 62.5 g/ha [10]: 20%; pest or weed control at 250 g/ha [10]: 70%; pest or weed control at 15.625 g/ha [11]: 20%; pest or weed control at 62.5 g/ha [11]: 0%; pest or weed control at 250 g/ha [11]: 80%; pest or weed control at 15.625 g/ha [12]: 30%; pest or weed control at 62.5 g/ha [12]: 30%; pest or weed control at 250 g/ha [12]: 60% |

Reference: patent US12077503B2, “Substituted cyclic amides and their use as herbicides” (FMC CORPORATION, priority 2015, dated 2024)
